This passage reports IC50 results from EP4722203A1, “3,4-DIHYDROPHTHALAZIN-1(2H)-ONE DERIVATIVE, AND PREPARATION METHOD THEREFOR AND USE THEREOF” (Academy of Military Medical Sciences, priority 2023, dated 2024).

Assay type in all cases: cell-based
For experiment [1], the system named is NCI-H929-Lenalidomide-R cells. The experiment is described as follows: Antiproliferative activity against resistant cells, CCK-8 assay. The settings on record: Homo sapiens, 144 hours incubation. As to the method: (§1) In this example, lenalidomide-resistant human multiple myeloma cells, including NCI-H929 (NCI-H929-Lenalidomide-R) and RPMI-8226 (RPMI-8226-Lenalidomide-R), and pomalidomide-resistant human multiple myeloma cells, including NCI-H929 (NCI-H929-pomalidomide-R) and RPMI-8226 (RPMI-8226-pomalidomide-R), were selected as cell models to determine the inhibitory activity of compound I-8 of the present invention against the proliferation of the resistant cells.
(§2) • ① I-8 was dissolved in DMSO to prepare a 10 mM stock solution. Compounds used within three months should be stored at room temperature in a desiccator; others could be stored at -20°C for long-term storage. • ② The I-8 stock solution and the reference compounds lenalidomide and pomalidomide were all diluted with DMSO. Their initial concentrations were 10 µM. In the experiments of lenalidomide-resistant human multiple myeloma cells (NCI-H929 (NCI-H929-Lenalidomide-R) and RPMI-8226 (RPMI-8226-Lenalidomide-R) and pomalidomide-resistant human multiple myeloma cells (NCI-H929 (NCI-H929-pomalidomide-R) and RPMI-8226 (RPMI-8226-pomalidomide-R), 3-fold serial dilution with 11 concentration points was performed, with the lowest concentration of […]. The resulting solutions were shaken on a shaker for 5 minutes.
(§3) • ① The NCI-H929-Lenalidomide-R, RPMI-8226-Lenalidomide-R, NCI-H929-pomalidomide-R, and RPMI-8226-pomalidomide-R cells in logarithmic growth phase were inoculated in a 96-well plate, 20,000 to 30,000 cells per well, and the plate was pre-cultured for 24 hours in an incubator (at 37°C and 5% CO2). • ® The culture medium in the plate was replaced, and the compounds and the positive controls with corresponding concentrations were added to the plated at a volume of 50 µL. • ③ The plate was incubated for 144 hours in an incubator, then 15 µL of CCK-8 solution was added to each well, and the plate was incubated in the incubator for another 1-4 hours. • ④ The absorbance at 450 nm was measured using a microplate reader.
(§4) • ① Calculating % Inhibition: [formula] • ② Calculating IC50 value of compound and plotting dose-response curve: The IC50 value was calculated by fitting the % Inhibition and the logarithm of compound concentration to a nonlinear regression (dose response-variable slope) by using GraphPad 6.0. Y = Bottom + (Top−Bottom)/(1+10^(∧)((LogIC50−X)*HillSlope)) [formula] X: log of inhibitor concentration; Y: % Inhibition.
(§5) After calculating % Inhibition, a dose-response curve was plotted with the logarithm of the test compound concentration as the x-axis and the average cell viability as the y-axis, and the IC50 value was obtained by fitting.
In general terms: Tetrazolium assays rely on reduction of a dye to a coloured formazan, in cell work by metabolically active cells.

The subject of experiment [2] is NCI-H929-pomalidomide-R cells. Described as above. As to conditions: Homo sapiens, 144 hours incubation. The protocol:
as §1, §2, §3, §4, §5

In experiment [3] the test system is RPMI-8226-Lenalidomide-R cells. Described as above. The settings on record: Homo sapiens, 144 hours incubation. As to the method:
as §1, §2, §3, §4, §5

Experiment [4] relates to RPMI-8226-pomalidomide-R cells. Described as above. The settings on record: Homo sapiens, 144 hours incubation. The protocol:
as §1, §2, §3, §4, §5

For another experiment, the system named is RPMI-8226 cells. The experiment is described as follows: Antiproliferative activity, CCK-8 assay. The settings on record: Homo sapiens, 144 hours incubation, CCK-8, absorbance at 450 nm.

The term IC50 denotes the concentration that gives 50% inhibition. Read a high IC50 as lower potency.

Regarding `CN1Cc2c(NCc3ccc(CN4CCN(c5ccc(C#N)c(F)c5)CC4)cc3)cccc2C(=O)N1C1CCC(=O)NC1=O` (stereo not shown) [I-8], the IC50 in experiment [1] was determined as 0.055 µM; in experiment [2], 0.095 µM; in experiment [3] it was 0.246 µM; in experiment [4] it was 0.314 µM; with RPMI-8226 cells, 0.308 µM.

Consider `Nc1cccc2c1C(=O)N(C1CCC(=O)NC1=O)C2=O` (stereo not shown) [Pomalidomide, reference compound], for which the half-inhibitory concentration (IC50) in experiment [1] is over 100 µM; in experiment [2], over 100 µM; in experiment [3], over 100 µM; in experiment [4], over 100 µM; with RPMI-8226 cells it was 0.729 µM.
